From patent US10683278B2 (JINAN UNIVERSITY, priority 2015, dated 2020)
Where “and” joins values, the source holds several entries; their conditions need not be identical. Identical values can stand only once. Like-named read-outs stand apart in the source and are kept apart here.

Legend:
AXL kinase = molecular target: T1, AXL kinase (Homo sapiens, UniProt P30530); test: IC50 test on AXL kinase (Z′-LYTE FRET kinase activity detection); assay type: biochemical; details: for IC50: Z′-LYTE FRET peptide assay, 1 h reaction
T1 construct: purchased Invitrogen PV4803
T1 sequence (P30530 26-894): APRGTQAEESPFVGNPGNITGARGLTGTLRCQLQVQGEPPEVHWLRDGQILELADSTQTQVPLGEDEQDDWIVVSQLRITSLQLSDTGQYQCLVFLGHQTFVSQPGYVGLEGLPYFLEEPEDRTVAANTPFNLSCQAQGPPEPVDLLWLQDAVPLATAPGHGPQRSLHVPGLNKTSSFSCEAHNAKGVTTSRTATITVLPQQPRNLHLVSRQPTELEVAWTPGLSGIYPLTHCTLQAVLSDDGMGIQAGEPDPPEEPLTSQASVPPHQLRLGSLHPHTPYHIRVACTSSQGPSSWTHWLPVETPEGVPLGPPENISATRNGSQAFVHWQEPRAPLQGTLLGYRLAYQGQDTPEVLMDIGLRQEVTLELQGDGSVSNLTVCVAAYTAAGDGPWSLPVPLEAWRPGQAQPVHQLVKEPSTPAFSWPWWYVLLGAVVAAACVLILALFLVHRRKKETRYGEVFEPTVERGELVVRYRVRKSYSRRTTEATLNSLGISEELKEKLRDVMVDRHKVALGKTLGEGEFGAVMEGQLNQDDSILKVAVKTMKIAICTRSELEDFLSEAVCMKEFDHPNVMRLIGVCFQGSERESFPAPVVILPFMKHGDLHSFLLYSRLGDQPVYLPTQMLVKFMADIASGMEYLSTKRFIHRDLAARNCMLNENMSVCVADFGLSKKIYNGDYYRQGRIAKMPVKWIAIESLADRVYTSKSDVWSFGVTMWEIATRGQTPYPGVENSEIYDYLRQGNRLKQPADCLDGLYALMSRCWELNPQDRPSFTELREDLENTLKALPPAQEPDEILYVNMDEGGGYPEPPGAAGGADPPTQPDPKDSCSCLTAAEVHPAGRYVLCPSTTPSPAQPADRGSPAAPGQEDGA
Outline: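 Z′-LYTE FRET readout: after 1 h kinase reaction (AXL, Tyr 2 peptide, ATP, compound dilutions), a 1 h protease step cuts unphosphorylated substrate. Excitation at 400 nm, signals at 445 nm and 520 nm used to derive IC50.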

[1] = In vivo pharmacokinetic and bioavailability experiments of rats; design: species or system SD rats; details: Sprague-Dawley, rat, plasma; for Cmax: read-out: Cmax
Protocol: Pharmacokinetic and bioavailability experiments of rats. SD rats were administered orally (25 mg/kg) and intravenously (2.5 to 5 mg/kg) at a single dose. Animal blood samples were taken at appropriate time points after administration, heparin was added as anticoagulant, and same were centrifuged at 8000 rpm/min for 6 minutes, the supernatant was then taken and stored at −20° C. for HPLC-MS analysis. The proteins in blood samples were precipitated with acetonitrile at 12000 rpm for 10 min, and the supernatant was used for HPCL-MS analysis. Data were fit using DAS2.0 to obtain compartmental model and non-compartmental model parameters, respectively. The oral bioavailability of each compound was calculated according to AUC data.

[2] = molecular target: T2, FLT-3 kinase domain recombinant protein (Homo sapiens, UniProt P36888); test: Inhibition rate on FLT3 kinase (ELISA); assay type: biochemical; details: two values per compound; for inhibition at 0.01 µM / inhibition at 0.1 µM / inhibition at 1 µM: read-out: Inhibition rate (%) against receptor tyrosine kinase FLT-3
T2 construct: 50 μL FLT-3 kinase domain recombinant protein diluted with reaction buffer to initiate the reaction
T2 sequence (P36888 610-943 limits assumed): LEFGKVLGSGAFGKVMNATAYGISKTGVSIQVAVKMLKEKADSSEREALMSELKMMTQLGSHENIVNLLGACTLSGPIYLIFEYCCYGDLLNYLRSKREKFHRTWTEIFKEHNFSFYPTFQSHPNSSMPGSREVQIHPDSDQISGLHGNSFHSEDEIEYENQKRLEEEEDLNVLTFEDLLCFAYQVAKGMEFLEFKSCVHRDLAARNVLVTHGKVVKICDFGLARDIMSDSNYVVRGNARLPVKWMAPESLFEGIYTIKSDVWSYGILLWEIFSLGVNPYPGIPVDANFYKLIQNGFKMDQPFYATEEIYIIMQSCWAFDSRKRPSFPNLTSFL
Protocol: Conventional enzyme-linked immunosorbent assay (ELISA) method is used, and the specific steps are as follows
12,000 g of compounds were centrifuged for 5 min, DMSO was added to make a 10^−2M stock solution, vortexed uniformly and sonicated for 10 min for standby application, and stored at −40° C. The compounds were diluted from the stock solution with DMSO to 100 times the concentration to be tested (concentration of DMSO in the system being 1%) during the test.
1. The enzyme reaction substrate Poly (Glu, Tyr) 4:1 was diluted to 20 μg/mL with potassium-free PBS (10 mM sodium phosphate buffer, 150 mM NaCl, pH 7.2-7.4), the ELISA plate was coated with same in 125 μL/well, and reacted at 37° C. for 12-16 hours, the liquid in wells was discarded, the plate was washed three times, for 5 minutes each time, with T-PBS (potassium-free PBS with 0.1% Tween-20, 200 μL/well), and the ELISA plate was dried in an oven at 37° C. for 1-2 hours.
2. To each well were added 49 μL of ATP solution diluted with reaction buffer (50 mM HEPES pH 7.4, 50 mM MgCl2, 0.5 mM MnCl2, 0.2 mM Na3VO4, 1 mM DTT), 1 μL of compounds to be tested, and 50 μL FLT-3 kinase domain recombinant protein diluted with reaction buffer to initiate the reaction (two ATP-free control wells are required for each experiment). Subject to a shaker (100 rpm) at 37° C. and reacted for 1 hour. The liquid in wells was discarded, and the plate was washed three times with T-PBS.
(§1) 3. Antibody PY99 diluent (the antibody was diluted in 1:500 with T-PBS which contains 5 mg/mL BSA) was added in 100 μL/well, subjected same to a shaker at 37° C. and reacted for 0.5 hour. The liquid in wells was discarded, and the plate was washed three times with T-PBS.
as §1, with “4. Horseradish peroxidase labeled goat anti-mouse secondary antibody” for “3. Antibody PY99”, “1:2000” for “1:500”, “mg/ml” for “mg/mL”
5. 2 mg/ml of OPD developing solution (diluted with 0.1 M citric acid-sodium citrate buffer which contains 0.03% H2O2 (pH=5.4)) was added in 100 μL/well, and reacted at 25° C. in the dark for 1-10 minutes.
6. 2 M H2SO4 was added in 50 μL/well to stop the reaction, and the reading from the wavelength-adjustable microwell plate ELIASA VERSAmax was performed with a wavelength of 490 nm.

[3] = SD rats, Po, 25 mg/kg single dose
[4] = SD rats, iv, 5 mg/kg single dose

Molecule	IC50 (AXL kinase) [nM]	bioavailability ([1]; po, 25 mg/kg, read-out: F (oral bioavailability)) [%]	AUC(0-inf) [1, 3] [ng·h/mL]	AUC(0-t) [1, 3] [ng·h/mL]	half-life [1, 3] [h]	Cmax [1, 3] [ng/mL]	AUC(0-inf) [1, 4] [ng·h/mL]	AUC(0-t) [1, 4] [ng·h/mL]	clearance [1, 4] [mL/min/kg]	half-life [1, 4] [h]	Cmax [1, 4] [ng/mL]	Inhibition rate (%) against receptor tyrosine kinase FLT-3 ([2]; compound 10 nM, 0.01 µM)	inhibition at 0.01 µM ([2]; compound 10 nM) [%]	Inhibition rate (%) against receptor tyrosine kinase FLT-3 ([2]; compound 100 nM, 0.1 µM)	inhibition at 0.1 µM ([2]; compound 100 nM) [%]	Inhibition rate (%) against receptor tyrosine kinase FLT-3 ([2]; compound 1000 nM, 1 µM)	inhibition at 1 µM ([2]; compound 1000 nM) [%]	inhibitory activity on AXL kinase (AXL kinase; competitive experiment with ATP, in words)
COc1cc2ncnc(Oc3ccc(NC(=O)c4cn(-c5ccc(F)cc5)c5cc(N6CCNCC6)c(F)cc5c4=O)cc3F)c2cc1OC [TL4830042, N-(4-(6,7-dimethoxyquinazolin-4-yloxy)-3-fluorophenyl)-6-fluoro-1-(4-fluorophenyl)-4-oxo-7-(piperazin-1-yl)-1,4-dihydroquinoline-3-carboxamide]	38	0.2	151	98.9	14.5	7.15	15200	9780	5.83	15.8	885	40.0%	52.3	44.5%	53.8	87.0%	92.3	
COc1cc2ncnc(Oc3ccc(NC(=O)c4cn(C5CC5)c5cc(N6CCNCC6)c(F)cc5c4=O)cc3F)c2cc1OC [GDL5000110, 1-cyclopropyl-N-(4-(6,7-dimethoxyquinazolin-4-yloxy)-3-fluorophenyl)-6-fluoro-4-oxo-7-(piperazin-1-yl)-1,4-dihydroquinoline-3-carboxamide]	20											49.2%	48.5	51.8%	50.3	81.2%	83.5	
Cc1c(C(=O)Nc2ccc(Oc3ncnc4[nH]cc(-c5ccccc5)c34)c(F)c2)c(=O)c2cc(C(C)(C)C)ccc2n1C [TL4800062, 6-(tert-butyl)-N-(3-fluoro-4-((5-phenyl-7H-pyrrolo[2,3-d]pyrimidin-4-yl)oxy)phenyl)-1,2-dimethyl-4-oxo-1,4-dihydroquinoline-3-carboxamide]	42											44.9%	40.5	65.8%	69.5	79.1%	84	
6-ethyl-N-(3-fluorophenyl-1H-pyrrolo[2,3-d]pyridin-4-yl)oxy)phenyl)-1,2-dimethyl-4-oxo-1,4-dihydroquinoline-3-carboxamide [TL4800172]	29.8											63.7% and 55.0%		74.9% and 67.8%		85.5% and 72.0%		strong inhibitory activity
Cc1c(C(=O)Nc2ccc(Oc3ncnc4[nH]cc(-c5ccccc5)c34)c(F)c2)c(=O)c2cc(OC(F)(F)F)ccc2n1C [TL4800117, N-(3-fluoro-4-((5-phenyl-7H-pyrrolo[2,3-d]pyrimidin-4-yl)oxy)phenyl)-1,2-dimethyl-4-oxo-6-(trifluoromethoxy)-1,4-dihydroquinoline-3-carboxamide]	75											61.5%	59.5	70.2%	76.3	74.1%	83.8	
CCc1ccc2c(c1)c(=O)c(C(=O)Nc1ccc(Oc3ncnc4[nH]cc(-c5cnn(C)c5)c34)c(F)c1)c(C)n2C [GDL5000038, 6-ethyl-N-(3-fluoro-4-(5-(1-methyl-1H-pyrazol-4-yl)-7H-pyrrolo[2,3-d]pyrimidin-4-yloxy)phenyl)-1,2-dimethyl-4-oxo-1,4-dihydroquinoline-3-carboxamide]	34											55.0%	58.3	73.0%	80.7	95.9%	98.2	
Cc1c(C(=O)Nc2ccc(Oc3ncnc4[nH]cc(-c5ccccc5)c34)c(F)c2)c(=O)c2cc(C(F)(F)F)ccc2n1C [TL50121, N-(3-fluoro-4-((5-phenyl-7H-pyrrolo[2,3-d]pyrimidin-4-yl)oxy)phenyl)-1,2-dimethyl-4-oxo-6-(trifluoromethyl)-1,4-dihydroquinoline-3-carboxamide]	153											61.6%	58.2	63.3%	66.7	77.6%	84.4	
CCc1ccc2c(c1)c(=O)c(C(=O)Nc1ccc(Oc3ncnc4[nH]cc(-c5ccccc5)c34)c(C)c1)c(C)n2C [TL4830016, 6-ethyl-12-dimethyl-N-(3-methyl-4-(5-phenyl-7H-pyrrolo[2,3-d]pyrimidin-4-yloxy)phenyl)-4-oxo-1,4-dihydroquinoline-3-carboxamide]	1120											66.5%	50.2	66.1%	58.3	70.1%	67.1	
